Earlier results on two compounds are cited in patent publication US12544394B2, “Compositions and methods for treatment of fibrosis” (priority 2017, dated 2026).

The subject of series [1] is steatosis. As to conditions: vitamin E 400-1000 IU/day for 4-10 months.
Series [2] concerns NASH. As to conditions: patients with biopsy proven NASH, oral vitamin E supplementation.
For series [3] the following is noted: humans, oral route of administration.
Series [4] has as its system liver fibrosis. The note with it: DLPC fed in chow (U.S. Pat. No. 5,284,835).

Turning to `Cc1c(C)c2c(c(C)c1O)CC[C@@](C)(CCC[C@H](C)CCC[C@H](C)CCCC(C)C)O2` [vitamin E, Alpha-tocopherol], in series [1] (decreased from 104.+−.61 IU/L, P<0.002), the “mean AST levels after treatment” value is listed as 33.+−.11 IU/L. For the same compound, the “mean ALT levels after treatment” value in series [1] (decreased from 175.+−.106 IU/L, P<0.01) is 40.+−.26 IU/L. The liver histology outcome in series [2] was “improvement in hepatic steatosis and lobular inflammation but not portal inflammation or fibrosis”.
In the case of `CCCCCCCCCCCC(=O)OC[C@H](COP(=O)([O-])OCC[N+](C)(C)C)OC(=O)CCCCCCCCCCC` [DLPC, 1,2-dilauroyl-sn-glycero-3-phosphocholine], the clinical effect entry in series [3] was “no significant clinical effect”. In addition, the liver fibrosis entry in series [4] was “slow liver fibrosis”.
